Tests used:
[1] = test system: Bermuda grass; assay: Turfgrass quality and color ratings, Bermuda grass fairway (Example 10); assay type: in vivo; conditions: scale 1-10
Source text: (§1) In this Example, the effect of a fertilizer comprising lysine on warm season turfgrass growth was examined. The effects of lysine (HCl) and LIQUID LYSINE on a common type of golf course fairway quality turfgrass (Bermuda grass) were compared with those of urea and Milorganite.
(§2) Fifteen fertilizer treatments comprising three concentrations of each fertilizer composition (Milorganite (N—P—K, 6-2-0), urea (N—P—K, 46-0-0), LIQUID LYSINE (N—P—K, 10-2-1), and both granular and aqueous lysine (HCl) (N—P—K, 15-2-1)) were prepared and applied to 4 replications of Bermuda grass. The aqueous lysine (HCl) was dissolved in water prior to application. Each fertilizer treatment was applied in concentrations of 0.5 lb N/1000 ft^2/month, 1.0 lb N/1000 ft^2/month and 3.0 lb N/1000 ft^2/month. The urea, LIQUID LYSINE and aqueous lysine (HCl) were applied as foliar liquids, while Milorganite and granular lysine (HCl) were applied as granular fertilizers Plot size was 1 m×2 m set up as a randomized complete block. Plots were mowed at 0.5 inches before fertilizer application. Irrigation (0.15 inch) was applied following application. Plots were rated for turfgrass quality and color (scale of 1-10 where 10=dark green turf, 1=dead/brown turf, and 6=minimally acceptable turf) and phytotoxicity (scale of 0-5, where 5=worst, and 2=minimally objectionable) throughout the study period. Quality, color, and phytotoxicity were measured on 2 days before application (day −2) and day 2, day 5, day 15 and day 21 after application. All data was subject to statistical analysis and significant means were determined. Average turfgrass quality ratings for the treatments are presented in Table 9 and the quality results for application rates of 1.0 lb N/1000 ft^2/month are graphically presented in FIG. 4.

[2] = test system: Bermuda grass; assay: Phytotoxicity rating, Bermuda grass fairway (Example 10); assay type: in vivo; conditions: scale 0-5, 5=worst
Source text: as §1, §2

[3] = Monthly Rate 0.5 lbs N/1000 ft^2, Day 2
[4] = Monthly Rate 0.5 lbs N/1000 ft^2, Day 2, (HCl)
[5] = Monthly Rate 0.5 lbs N/1000 ft^2, Day 5, (HCl)
[6] = Monthly Rate 0.5 lbs N/1000 ft^2, Day 15, (HCl)
[7] = Monthly Rate 0.5 lbs N/1000 ft^2, Day 21, (HCl)
[8] = Monthly Rate 0.5 lbs N/1000 ft^2, Day −2 (before application)
[9] = Monthly Rate 0.5 lbs N/1000 ft^2, Day −2 (before application), (HCl)
[10] = Monthly Rate 1.0 lbs N/1000 ft^2, Day 2, (HCl)
[11] = Monthly Rate 1.0 lbs N/1000 ft^2, Day 5, (HCl)
[12] = Monthly Rate 1.0 lbs N/1000 ft^2, Day 15
[13] = Monthly Rate 1.0 lbs N/1000 ft^2, Day 15, (HCl)
[14] = Monthly Rate 1.0 lbs N/1000 ft^2, Day 21, (HCl)
[15] = Monthly Rate 1.0 lbs N/1000 ft^2, Day −2 (before application), (HCl)
[16] = Monthly Rate 3.0 lbs N/1000 ft^2, Day 2
[17] = Monthly Rate 3.0 lbs N/1000 ft^2, Day 5
[18] = Monthly Rate 3.0 lbs N/1000 ft^2, Day 5, (HCl)
[19] = Monthly Rate 3.0 lbs N/1000 ft^2, Day 15, (HCl)
[20] = Monthly Rate 3.0 lbs N/1000 ft^2, Day 21, (HCl)
[21] = Monthly Rate 3.0 lbs N/1000 ft^2, Day −2 (before application), (HCl)
[22] = Monthly Rate 0.5 lbs N/1000 ft^2, Day 5
[23] = Monthly Rate 0.5 lbs N/1000 ft^2, Day 15
[24] = Monthly Rate 0.5 lbs N/1000 ft^2, Day 21
[25] = Monthly Rate 1.0 lbs N/1000 ft^2, Day 2
[26] = Monthly Rate 1.0 lbs N/1000 ft^2, Day 5
[27] = Monthly Rate 1.0 lbs N/1000 ft^2, Day 21
[28] = Monthly Rate 1.0 lbs N/1000 ft^2, Day −2 (before application)
[29] = Monthly Rate 3.0 lbs N/1000 ft^2, Day 2, (HCl)
[30] = Monthly Rate 3.0 lbs N/1000 ft^2, Day 15
[31] = Monthly Rate 3.0 lbs N/1000 ft^2, Day 21
[32] = Monthly Rate 3.0 lbs N/1000 ft^2, Day −2 (before application)

Cl.NCCCC[C@H](N)C(=O)O [Lys (HCl) 15% N (aq), lysine (HCl)]
Quality Ratings - Bermuda Grass [1, 3]: 7.3b | Color Ratings - Bermuda Grass [1, 4]: 7.3 | Color Ratings - Bermuda Grass [1, 5]: 7.8 g·days | Quality Ratings - Bermuda Grass [1, 5]: 7.1 days | Color Ratings - Bermuda Grass [1, 6]: 7.6cde | Quality Ratings - Bermuda Grass [1, 6]: 7.8de | Color Ratings - Bermuda Grass [1, 7]: 8.0bc | Quality Ratings - Bermuda Grass [1, 7]: 8.0cde | Color Ratings - Bermuda Grass [1, 8]: 6.5 | Quality Ratings - Bermuda Grass [1, 9]: 6.3 | Color Ratings - Bermuda Grass [1, 10]: 7.3 | Quality Ratings - Bermuda Grass [1, 10]: 7.0b | Color Ratings - Bermuda Grass [1, 11]: 8.1cde | Quality Ratings - Bermuda Grass [1, 11]: 7.8bcd | Color Ratings - Bermuda Grass [1, 12]: 7.8cd | Quality Ratings - Bermuda Grass [1, 13]: 7.9de | Color Ratings - Bermuda Grass [1, 14]: 8.0bc | Quality Ratings - Bermuda Grass [1, 14]: 8.0cde | Color Ratings - Bermuda Grass [1, 15]: 6.5 | Quality Ratings - Bermuda Grass [1, 15]: 6.4 | Color Ratings - Bermuda Grass [1, 16]: 7.3 | Quality Ratings - Bermuda Grass [1, 16]: 7.4b | Color Ratings - Bermuda Grass [1, 17]: 9.0a | Quality Ratings - Bermuda Grass [1, 18]: 8.3ab | Color Ratings - Bermuda Grass [1, 19]: 8.3ab | Quality Ratings - Bermuda Grass [1, 19]: 8.8b | Color Ratings - Bermuda Grass [1, 20]: 8.8a | Quality Ratings - Bermuda Grass [1, 20]: 8.5ab | Color Ratings - Bermuda Grass [1, 21]: 6.1 | Quality Ratings - Bermuda Grass [1, 21]: 6.0 | Phytotoxicity - Bermuda Grass [2, 3]: 0.0b | Phytotoxicity - Bermuda Grass [2, 22]: 0 | Phytotoxicity - Bermuda Grass [2, 23]: 0 | Phytotoxicity - Bermuda Grass [2, 24]: 0 | Phytotoxicity - Bermuda Grass [2, 8]: 0 | Phytotoxicity - Bermuda Grass [2, 25]: 0.0b | Phytotoxicity - Bermuda Grass [2, 26]: 0 | Phytotoxicity - Bermuda Grass [2, 12]: 0 | Phytotoxicity - Bermuda Grass [2, 27]: 0 | Phytotoxicity - Bermuda Grass [2, 28]: 0 | Phytotoxicity - Bermuda Grass [2, 29]: 0.3ab | Phytotoxicity - Bermuda Grass [2, 17]: 0 | Phytotoxicity - Bermuda Grass [2, 30]: 0 | Phytotoxicity - Bermuda Grass [2, 31]: 0 | Phytotoxicity - Bermuda Grass [2, 32]: 0

Cl.NCCCC[C@H](N)C(=O)O [Lys (HCl) 15% N (gran), lysine (HCl)]
Quality Ratings - Bermuda Grass [1, 3]: 7.3b | Color Ratings - Bermuda Grass [1, 4]: 7.5 | Color Ratings - Bermuda Grass [1, 5]: 8.0def | Quality Ratings - Bermuda Grass [1, 5]: 7.6bcd | Color Ratings - Bermuda Grass [1, 6]: 7.1e | Quality Ratings - Bermuda Grass [1, 6]: 7.4e | Color Ratings - Bermuda Grass [1, 7]: 8.3b | Quality Ratings - Bermuda Grass [1, 7]: 7.9def | Color Ratings - Bermuda Grass [1, 8]: 6.5 | Quality Ratings - Bermuda Grass [1, 9]: 6.5 | Color Ratings - Bermuda Grass [1, 10]: 7.9 | Quality Ratings - Bermuda Grass [1, 10]: 7.6ab | Color Ratings - Bermuda Grass [1, 11]: 8.3bcd | Quality Ratings - Bermuda Grass [1, 11]: 7.9abc | Color Ratings - Bermuda Grass [1, 12]: 7.8cd | Quality Ratings - Bermuda Grass [1, 13]: 8.1cd | Color Ratings - Bermuda Grass [1, 14]: 8.3b | Quality Ratings - Bermuda Grass [1, 14]: 8.1bcd | Color Ratings - Bermuda Grass [1, 15]: 6.4 | Quality Ratings - Bermuda Grass [1, 15]: 6.3 | Color Ratings - Bermuda Grass [1, 16]: 7.3 | Quality Ratings - Bermuda Grass [1, 16]: 7.4b | Color Ratings - Bermuda Grass [1, 17]: 9.0a | Quality Ratings - Bermuda Grass [1, 18]: 8.5a | Color Ratings - Bermuda Grass [1, 19]: 8.6a | Quality Ratings - Bermuda Grass [1, 19]: 9.4a | Color Ratings - Bermuda Grass [1, 20]: 8.9a | Quality Ratings - Bermuda Grass [1, 20]: 8.6a | Color Ratings - Bermuda Grass [1, 21]: 6.4 | Quality Ratings - Bermuda Grass [1, 21]: 6.1 | Phytotoxicity - Bermuda Grass [2, 3]: 0.0b | Phytotoxicity - Bermuda Grass [2, 22]: 0 | Phytotoxicity - Bermuda Grass [2, 23]: 0 | Phytotoxicity - Bermuda Grass [2, 24]: 0 | Phytotoxicity - Bermuda Grass [2, 8]: 0 | Phytotoxicity - Bermuda Grass [2, 25]: 0.0b | Phytotoxicity - Bermuda Grass [2, 26]: 0 | Phytotoxicity - Bermuda Grass [2, 12]: 0 | Phytotoxicity - Bermuda Grass [2, 27]: 0 | Phytotoxicity - Bermuda Grass [2, 28]: 0 | Phytotoxicity - Bermuda Grass [2, 29]: 0.5a | Phytotoxicity - Bermuda Grass [2, 17]: 0 | Phytotoxicity - Bermuda Grass [2, 30]: 0 | Phytotoxicity - Bermuda Grass [2, 31]: 0 | Phytotoxicity - Bermuda Grass [2, 32]: 0

— patent publication US7811352B2, “Fertilizer compositions and methods of using” (priority 2005, dated 2010)
